Source: US20060111335A1, “Photoactivated anti-viral and anti-cancer agent” (priority 2002, published 2006)

Tested on: CT DNA
Assay: Photolysis with calf thymus DNA: rhodium covalently bound to DNA
Format: binding
Conditions: irradiation >330 nm
Protocol: General. The quantity of DNA was determined by the Burton assay (Burton, Biochem. J., 62:315-322 (1956)), and its rhodium content was quantitated using flame atomic absorption spectroscopy (AA). The equilibrium constant for interaction between DPPZPHEN and CT-DNA in the dark was calculated from UV-Vis absorption titration measurements at 380 nm (Wolfe et al., Biochem., 26:6392-6396 (1987); Schemel et al., Biopolymers, 10:465-480 (1971)). Cell viability was determined using the MTT assay (Denizot et al., J. Immunol. Methods, 89:271-277 (1986)). SINV was purified on sucrose gradients as previously described (Owen et al., J. Virol., 70:2757-2763 (1996)).
Photolysis with Calf Thymus DNA (CT DNA). Solutions consisting of 1 mL aliquots of 0.58 mM DPPZPHEN and 2.7 mg/mL CT DNA were irradiated with λ>330 nm light. After irradiation, the solutions were purified by exhaustive dialysis and three cycles of precipitation and resuspension. The DNA and Rh content were determined and/or the DNA was utilized in size exclusion chromatography experiments (Mahnken et al., J. Am. Chem. Soc., 114:9253-9265 (1992)).

[Cl-].[Cl][Rh+]12([Cl])([N]3C=CC=c4ccc5c(c43)[N]1C=CC=5)[N]1C=CC=c3c1c1c(c4nc5ccccc5nc34)=CC=C[N]12 [DPPZPHEN, cis-dichloro(dipyrido[3,2a-2′3′c]phenazine)(1,10-phenantroline) rhodium(III) chloride]
bases per bound molecule of Rh: ~18 bases
